Measurements published in ChEMBL document CHEMBL2016442, “Structure-activity studies of some berberine analogs as inhibitors of Toxoplasma gondii” (Bioorg Med Chem Lett, 2012).

Tests used:
Toxoplasma gondii [1] = assay: Antiparasitic activity against Toxoplasma gondii ATCC 50839 infected in human fibroblasts assessed as inhibition of replication of tachyzoites after 4 days by bacterial beta-galactosidase assay; assay type: functional; settings: ATCC 50839, 96 h, read-out: ID50 (the source's name)
[2] = Therapeutic index, ratio of TD50 for human fibroblast cell to ID 50 for Toxoplasma gondii ATCC 50839; assay type: cell-based; settings: human fibroblast cells, read-out: TI
[3] = Cytotoxicity against human fibroblasts assessed as cell viability by microplate reader; assay type: cell-based, Fibroblast; settings: read-out: TD50 (the source's name)
Toxoplasma gondii [4] = assay: Ratio of trimethoprim ID50 to compound ID50 for Toxoplasma gondii ATCC 50839; assay type: functional

Row | Compound | IC50 (Toxoplasma gondii [1]) [µM] | selectivity ratio [2] | CC50 [3] [µM] | Ratio (Toxoplasma gondii [4])
1 | COc1ccc2cc3[n+](cc2c1O)CCc1cc2c(cc1-3)OCO2 [BERBERRUBINE] | 0.06 | 1300 | 81 | 
2 | COc1cc(Cc2cnc(N)nc2N)cc(OC)c1OC [TRIMETHOPRIM] | 15 | > 3 | > 500 | 
3 | COc1ccc2cc3n(c(=O)c2c1OC)CCc1cc2c(cc1-3)OCO2 [OXYBERBERINE] | 12 | 8 | 97 | 
4 | COc1ccc2c(c1OC)CN1CCc3cc4c(cc3[C@@H]1C2)OCO4 [CANADINE] | 8.7 | 24 | 210 | 
5 | COc1ccc2c(c1OC)CN1CCc3cc4c(cc3C1=C2)OCO4 [DIHYDROBERBERINE] | 0.65 | 63 | 41 | 
6 | COc1ccc2cc3[n+](cc2c1OC(C)=O)CCc1cc2c(cc1-3)OCO2 | 0.075 | 600 | 45 | 
7 | COc1ccc2cc3[n+](cc2c1OC)CCc1cc2c(cc1-3)OCO2 [BERBERINE] | 0.58 | 1.5 | 0.85 | 30
8 | CCCCCCCOc1c(OC)ccc2cc3[n+](cc12)CCc1cc2c(cc1-3)OCO2 | 0.2 | 5.5 | 1.1 | 
9 | CCCCCC(=O)Oc1c(OC)ccc2cc3[n+](cc12)CCc1cc2c(cc1-3)OCO2 | 0.036 | 4000 | 145 | 
10 | CCCC(=O)Oc1c(OC)ccc2cc3[n+](cc12)CCc1cc2c(cc1-3)OCO2 | 0.068 | 2000 | 135 | 
11 | COc1ccc2c(c1OC)C(C)N1CCc3cc4c(cc3C1=C2)OCO4 (stereo not given) | 4.2 | 3 | 12 | 
12 | CCOc1c(OC)ccc2cc3[n+](cc12)CCc1cc2c(cc1-3)OCO2 | 0.83 | 12 | 9.6 | 
13 | CCCCCOc1c(OC)ccc2cc3[n+](cc12)CCc1cc2c(cc1-3)OCO2 | 1.8 | 3 | 5.9 | 
